The text below walks through data of ChEMBL document CHEMBL1130680, “Restricting the flexibility of crosslinked, interfacial peptide inhibitors of HIV-1 protease” (Bioorg Med Chem Lett, 1998).

Molecules are shown by their SMILES. pIC50: −log10 of the molar value.

The test concerns the target Human immunodeficiency virus type 1 protease (Human immunodeficiency virus 1, UniProt Q72874). As to the kind of experiment: Inhibition of HIV-1 protease by fluorogenic substrate assay.
Compound `CC[C@H](C)[C@H](NC(=O)[C@H](CCC(N)=O)NC(=O)[C@@H]1CCCN1C(=O)CCCCC/C=C/CCCCCC(=O)N[C@H](CO)C(=O)N[C@@H](C(=O)N[C@H](CC(C)C)C(=O)N[C@H](CC(N)=O)C(=O)N[C@H](Cc1ccccc1)C(=O)O)[C@H](C)O)C(=O)N[C@H](C(=O)N[C@@H](CC(C)C)C(=O)N[C@@H](Cc1c[nH]c2ccccc12)C(=O)O)[C@@H](C)O` gave a pIC50 of 4.29.

With `CC[C@H](C)[C@H](NC(=O)[C@H](CCC(N)=O)NC(=O)[C@@H]1CCCN1C(=O)CCCCCC/C=C/CCCCCCC(=O)N[C@H](CO)C(=O)N[C@@H](C(=O)N[C@H](CC(C)C)C(=O)N[C@H](CC(N)=O)C(=O)N[C@H](Cc1ccccc1)C(=O)O)[C@H](C)O)C(=O)N[C@H](C(=O)N[C@@H](CC(C)C)C(=O)N[C@@H](Cc1c[nH]c2ccccc12)C(=O)O)[C@@H](C)O`, the pIC50 was 4.76.

On to `CC[C@H](C)[C@H](NC(=O)[C@H](CCC(N)=O)NC(=O)[C@@H]1CCCN1C(=O)CCCCCCC/C=C/CCCCCCCC(=O)N[C@H](CO)C(=O)N[C@@H](C(=O)N[C@H](CC(C)C)C(=O)N[C@H](CC(N)=O)C(=O)N[C@H](Cc1ccccc1)C(=O)O)[C@H](C)O)C(=O)N[C@H](C(=O)N[C@@H](CC(C)C)C(=O)N[C@@H](Cc1c[nH]c2ccccc12)C(=O)O)[C@@H](C)O`, for which the pIC50 was 5.20.

On to `CC[C@H](C)[C@H](NC(=O)[C@H](CCC(N)=O)NC(=O)[C@@H]1CCCN1C(=O)CCCCCC/C=C\CCCCCCC(=O)N[C@H](CO)C(=O)N[C@@H](C(=O)N[C@H](CC(C)C)C(=O)N[C@H](CC(N)=O)C(=O)N[C@H](Cc1ccccc1)C(=O)O)[C@H](C)O)C(=O)N[C@H](C(=O)N[C@@H](CC(C)C)C(=O)N[C@@H](Cc1c[nH]c2ccccc12)C(=O)O)[C@@H](C)O`, for which the pIC50 is 4.89.

For `CC[C@H](C)[C@H](NC(=O)[C@H](CCC(N)=O)NC(=O)[C@@H]1CCCN1C(=O)CCCCC/C=C\CCCCCC(=O)N[C@H](CO)C(=O)N[C@@H](C(=O)N[C@H](CC(C)C)C(=O)N[C@H](CC(N)=O)C(=O)N[C@H](Cc1ccccc1)C(=O)O)[C@H](C)O)C(=O)N[C@H](C(=O)N[C@@H](CC(C)C)C(=O)N[C@@H](Cc1c[nH]c2ccccc12)C(=O)O)[C@@H](C)O`, the pIC50 was 4.49. Compared with the last compound, the pIC50 is 0.40 log units lower.

The compound `CC[C@H](C)[C@H](NC(=O)[C@H](CCC(N)=O)NC(=O)[C@@H]1CCCN1C(=O)CCCCCCCCCCCCCCCCC(=O)N[C@H](CO)C(=O)N[C@@H](C(=O)N[C@H](CC(C)C)C(=O)N[C@H](CC(N)=O)C(=O)N[C@H](Cc1ccccc1)C(=O)O)[C@H](C)O)C(=O)N[C@H](C(=O)N[C@@H](CC(C)C)C(=O)N[C@@H](Cc1c[nH]c2ccccc12)C(=O)O)[C@@H](C)O` showed a negative-log IC50 (pIC50) of 5.40.

With `CC[C@H](C)[C@H](NC(=O)[C@H](CCC(N)=O)NC(=O)[C@@H]1CCCN1C(=O)CCCCCCCCCCCCCCC(=O)N[C@H](CO)C(=O)N[C@@H](C(=O)N[C@H](CC(C)C)C(=O)N[C@H](CC(N)=O)C(=O)N[C@H](Cc1ccccc1)C(=O)O)[C@H](C)O)C(=O)N[C@H](C(=O)N[C@@H](CC(C)C)C(=O)N[C@@H](Cc1c[nH]c2ccccc12)C(=O)O)[C@@H](C)O`, the pIC50 is 5.70.

`CC[C@H](C)[C@H](NC(=O)[C@H](CCC(N)=O)NC(=O)[C@@H]1CCCN1C(=O)CCCCCCCCCCCCC(=O)N[C@H](CO)C(=O)N[C@@H](C(=O)N[C@H](CC(C)C)C(=O)N[C@H](CC(N)=O)C(=O)N[C@H](Cc1ccccc1)C(=O)O)[C@H](C)O)C(=O)N[C@H](C(=O)N[C@@H](CC(C)C)C(=O)N[C@@H](Cc1c[nH]c2ccccc12)C(=O)O)[C@@H](C)O` had a pIC50 of 4.89.

Compound `CC[C@H](C)[C@H](NC(=O)[C@H](CCC(N)=O)NC(=O)[C@@H]1CCCN1C(=O)CCCCCCCC#CCCCCCCCC(=O)N[C@H](CO)C(=O)N[C@@H](C(=O)N[C@H](CC(C)C)C(=O)N[C@H](CC(N)=O)C(=O)N[C@H](Cc1ccccc1)C(=O)O)[C@H](C)O)C(=O)N[C@H](C(=O)N[C@@H](CC(C)C)C(=O)N[C@@H](Cc1c[nH]c2ccccc12)C(=O)O)[C@@H](C)O` gave a pIC50 of 5.14.

The compound `CC[C@H](C)[C@H](NC(=O)[C@H](CCC(N)=O)NC(=O)[C@@H]1CCCN1C(=O)CCCCCCC#CCCCCCCC(=O)N[C@H](CO)C(=O)N[C@@H](C(=O)N[C@H](CC(C)C)C(=O)N[C@H](CC(N)=O)C(=O)N[C@H](Cc1ccccc1)C(=O)O)[C@H](C)O)C(=O)N[C@H](C(=O)N[C@@H](CC(C)C)C(=O)N[C@@H](Cc1c[nH]c2ccccc12)C(=O)O)[C@@H](C)O` gave a pIC50 of 5.35. This pIC50 is 0.21 log units higher than that of the compound before.

For `CC[C@H](C)[C@H](NC(=O)[C@H](CCC(N)=O)NC(=O)[C@@H]1CCCN1C(=O)CCCCCC#CCCCCCC(=O)N[C@H](CO)C(=O)N[C@@H](C(=O)N[C@H](CC(C)C)C(=O)N[C@H](CC(N)=O)C(=O)N[C@H](Cc1ccccc1)C(=O)O)[C@H](C)O)C(=O)N[C@H](C(=O)N[C@@H](CC(C)C)C(=O)N[C@@H](Cc1c[nH]c2ccccc12)C(=O)O)[C@@H](C)O`, the pIC50 is 4.68.

Compound `CC[C@H](C)[C@H](NC(=O)[C@H](CCC(N)=O)NC(=O)[C@@H]1CCCN1C(=O)CCCCCCC/C=C\CCCCCCCC(=O)N[C@H](CO)C(=O)N[C@@H](C(=O)N[C@H](CC(C)C)C(=O)N[C@H](CC(N)=O)C(=O)N[C@H](Cc1ccccc1)C(=O)O)[C@H](C)O)C(=O)N[C@H](C(=O)N[C@@H](CC(C)C)C(=O)N[C@@H](Cc1c[nH]c2ccccc12)C(=O)O)[C@@H](C)O` gave a pIC50 of 5.36.

The pIC50 is the IC50 on a negative log10 scale, so that one unit is a factor of ten. A higher pIC50 goes with a low IC50.
